Assays:
[1] = system: caspase-3/7 activation in H441 cells; experiment: Caspase-3 immunoblotting and Apo-One caspase-3/7 assay in H441 cells; format: cell-based, human
[2] = system: Human lung adenocarcinoma cell line NCI-H441; experiment: In vitro anti-proliferative activity in H441 cells (hexosaminidase), Example 2; format: cell-based
Description: Human lung adenocarcinoma cell line NCI-H441 (ATCC # HTB-174) and normal lung fibroblasts LL-24 (ATCC #CCL-151) were obtained from American Type Culture Collection (Manassas, Va.). The cells were maintained at 37° C. with 5% CO2 in RPMI 1640 medium (Invitrogen, Carlsbad, Calif.). The medium was supplemented with 10% heat-inactivated fetal bovine serum and 50 μg/ml of gentamicin (GIBCO Laboratories, Grand Island, N.Y.). For cell proliferation assay, the cells were seeded in 96-well flat-bottom tissue culture plates at a density of 0.5−1×10^4 cells per well. The cells were allowed to adhere and grow overnight, followed by treatment with CLEFMA or CLEFMA-liposomes. The concentration of CLEFMA was maintained in the range of 0.1-25 μM in 100 μl of RPMI 1640 medium. For comparison, the cells were also treated with 1 and 10 μM natural curcumin and EF24. EF24 is a potent synthetic curcuminoid and a close analog of CLEFMA [Adams et al., 2004]. All solutions of plain drugs were made in dimethylsulfoxide (DMSO). The concentration of DMSO in the treatment medium was maintained at 0.1%. The control wells received equivalent amounts of DMSO or phospholipid-matched control liposomes. Inhibition of cell proliferation was determined by measuring a decrease in hexosaminidase activity as described by Landegren [Landegren, 1984]. Para-nitrophenol-N-acetyl-beta-D-glucosaminide (60 μl per well) was used as the substrate for the hexosaminidase enzyme. The results of hexosaminidase assay were also confirmed by visualization of cultured cells under a microscope.

H441 cells = experiment: Illumina microarray gene expression analysis of H441 cells; format: cell-based, human; details: H441, 1 μM, 12 hours
Description: RNA Extraction and microarray sample processing: H441 cells were seeded in […] tissue culture plates at a density of 1×10^6 cells per well. The cells were allowed to attach and grow overnight and then treated with CLEFMA (n=5) at 1 μM in culture medium supplemented with 5% FBS. The DMSO concentration was maintained at 0.1% per well. Control wells (n=5) received equivalent volumes of DMSO without any test compound. The cells were kept in the treatment medium for 12 hours, after which the cells were washed twice with ice-cold Dulbecco's phosphate buffered saline (PBS). The total RNA was extracted using the RNAeasy kit (Qiagen, CA) as per the manufacturer's instructions. The quality of RNA was ascertained by the Nanodrop 2000 spectrophotometer (NanoDrop products, Wilmington, Del.).
The expression of >48,000 genes were compared using Illumina Human WG-6 v3 arrays. Hybridization to Illumina microarrays was performed at the Oklahoma Medical Research Foundation (Oklahoma City, USA). RNA (250 ng) from each sample was labeled using the Illumina Total Prep RNA Amplification Kit following the manufacturer's directions (Ambion, Austin, Tex.). Briefly, cDNA was reverse transcribed from RNA after priming with T7-oligo-dT, and cRNA was synthesized from the T7 promoter while incorporating biotinylated UTP. The cRNA was then hybridized overnight to Illumina BeadChips, and the microarray chips were washed with high stringency and labeled with streptavidin-Cy3 (Amersham Biosciences; Piscataway, N.J.) prior to scanning on an Illumina BeadArray Reader.
Microarray Data Analysis: The Illumina WG-6_v3 array data for each experimental condition were exported from the BeadStudio Software for further analysis. The data were normalized as described previously [Dozmorov et al., 2004; Dozmorov et al., 2009] using the variability of low-expressing genes as a reference point. In order to find genes expressed above the level of technical noise, a frequency histogram of raw expression values was examined for each array. The histogram yielded a right-skewed unimodal distribution curve with a mode of approximately 75. A normal distribution curve representing the variability of the data around zero was then fitted around the mode, mirroring the Gaussian profile of the left part of the histogram. Its parameters were then defined (mean and standard deviation (SD)) and the data were normalized to the standard deviation of the noise after subtraction of the mean. […] The data were then filtered to remove genes with an expression value less than 3.0. This is equivalent to setting a threshold at 3 SD above the noise level. The genes that expressed below the noise level under all experimental conditions (approximately 1,600) were excluded from consideration, as their expression could not be reliably assessed. Full microarray data were deposited in the Gene Expression Omnibus (GEO, GSE23420) and are accessible on the GEO web site.
To identify differentially expressed genes between two experimental groups, the associative analysis as described elsewhere [Dozmorov et al., 2009] was used. Briefly, a reference group of genes expressed above background with low variability of expression in pooled microarray datasets was identified by an F-test. […] For the genes with statistically significant variability above the random, the variations were assumed to have biological reasons. An associative t-test was applied to investigate if a given gene belongs to a certain group. […]

SMILES: O=C(O)C=CC(=O)N1CC(=Cc2ccccc2Cl)C(=O)C(=Cc2ccccc2Cl)C1 [Compound 29, 4-[3,5-Bis-(2-chlorobenzylidene)-4-oxo-piperidin-1-yl]-4-oxo-2-butenoic acid]
- caspase-3 activation level (immunoblotting) ([1]; H441 cell lysates): no change in its activation level
- cleavage-based caspase activation (Apo-One caspase-3/7 assay) ([1]; H441 cells): no cleavage-based caspase activation was seen
- anti-proliferative activity in H441 cells [2]: more potent than curcumin and another synthetic curcuminoid EF24
- H441 cells surviving ([2]; 24 h treatment with 10 μM): Less than 40%
- GAPDH expression increase (H441 cells): 1.3 fold
- HMOX1 expression increase (H441 cells): 5.3 fold
- SOD1 expression increase (H441 cells): 1.3 fold
- SULTA1 expression increase (H441 cells): 3.8 fold
- SULTA2 expression increase (H441 cells): 8.5 fold
